Results on 2 compounds are retold here after patent US20230150986A1, “ANTAGONISTS OF THE MUSCARINIC ACETYLCHOLINE RECEPTOR M4” (Vanderbilt University, priority 2019, published 2023).

In the experiment the target is T1, Human M4 (Homo sapiens, UniProt P08173).
T1 construct: Human or rat M4 cDNA, along with the chimeric G protein Gq,5, were transfected into Chinese hamster ovary (CHO-K1) cells; expressed in transfected cells; host or cells: CHO-K1 (M4/Gqi5/CHO)
T1 sequence (P08173 1-479): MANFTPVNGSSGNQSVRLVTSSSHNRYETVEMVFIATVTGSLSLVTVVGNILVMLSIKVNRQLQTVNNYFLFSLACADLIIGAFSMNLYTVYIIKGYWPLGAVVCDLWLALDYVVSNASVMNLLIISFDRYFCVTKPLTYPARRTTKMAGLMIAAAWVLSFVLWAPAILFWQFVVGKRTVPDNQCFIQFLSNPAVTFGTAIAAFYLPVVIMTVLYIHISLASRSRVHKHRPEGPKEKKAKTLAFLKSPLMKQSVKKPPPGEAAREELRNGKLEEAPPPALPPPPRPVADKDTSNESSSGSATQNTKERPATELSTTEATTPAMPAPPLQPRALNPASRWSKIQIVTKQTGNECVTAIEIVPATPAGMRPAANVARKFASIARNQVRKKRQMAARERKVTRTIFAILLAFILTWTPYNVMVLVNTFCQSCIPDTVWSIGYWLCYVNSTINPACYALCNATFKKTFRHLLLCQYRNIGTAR
Put plainly: mAChR M4 cell-based functional assay (calcium flux, decrease of EC80 acetylcholine response). The following applies: for Human M4 Emin: % ACh maximum at 30 μM; for IC50: CHO-K1 cells with human M4 and Gqi5, EC80 acetylcholine. A digest of the protocol:
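CHO-K1 cells stably co-expressing M4 with chimeric Gqi5, loaded with Fluo-4 AM for 50 min at 37 °C; compounds added as 10-point 1:3 curves, then acetylcholine at EC20 (143 s) and EC80 (268 s). Calcium read by FDSS fluorescence ratio; IC50 from four-parameter fit of decrease in EC80 acetylcholine response.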

With `Fc1cc(F)c(F)c(-c2ccc(N[C@H]3C[C@@H]4CN(Cc5ccccn5)C[C@@H]4C3)nn2)c1` [Compound 2, (3aR,5s,6aS)-2-(pyridin-2-ylmethyl)-N-(6-(2,3,5-trifluorophenyl)pyridazin-3-yl)octahydrocyclopenta[c]pyrrol-5-amine], the “Human M4 Emin” value turned out to be 4% and the IC50 was determined as 21.1 nM.
On the same counts, the results for `Fc1cc(F)c(F)c(-c2ccc(N[C@H]3C[C@@H]4CN(CC5CCOCC5)C[C@@H]4C3)nn2)c1` [Compound 1, (3aR,5s,6aS)-2-((tetrahydro-2H-pyran-4-yl)methyl)-N-(6-(2,3,5-trifluorophenyl)pyridazin-3-yl)octahydrocyclopenta[c]pyrrol-5-amine] are 4% and 10.5 nM.

Broadly, the IC50 is the concentration that gives 50% inhibition.
